Experimental data taken from publication PMC9972480, “Synthesis of Quinoline and Dihydroquinoline Embelin Derivatives as Cardioprotective Agents” (Journal of Natural Products, 2023).
Like-named read-outs stand apart in the source and are kept apart here. Marks after values point to notes of the source that are not given here.

Tests used:
ROS in H9c2 cells = test: Intracellular ROS levels, DCFH-DA assay; assay type: cell-based, rat; conditions: for ROS production on co-treatment with DOX: compound 20 μM + DOX 1 μM, 24 h, vs DOX-treated cells
Protocol: Oxidative stress is produced by an imbalance between radical oxygen species (ROS) formation and endogenous antioxidant activation in reaction to cell injury, leading to myocardial toxicity. Accordingly, DOX-induced ROS production in the H9c2 cells was quantified with the DCFH-DA fluorogenic dye. […] No effects on ROS production were observed when compounds were incubated alone with cells. […] The inhibitory effects of embelin derivatives were similar to those induced by N-acetyl-cysteine (NAC), a well-known antioxidant.
Figure 5 Derivatives 4i, 6a, 6d, 6k, and 6m reduced ROS levels produced by DOX in H9c2 cells. Levels of ROS in H9c2 cells were measured fluorometrically after treatment with DOX (1 μM) alone or co-treatment with N-acetyl cysteine (NAC, 1 mM) or selected derivatives (20 μM) for 24 h, using the 2′,7′-dichlorfluorescein-diacetate (DCFH-DA) assay. Values are expressed as mean ± SD with respect to DOX-treated cells (n = 3). ****p < 0.0001 vs DOX-treated cells.
Intracellular ROS levels in H9c2 cells were evaluated by monitoring the oxidation of 2′,7′-dichlorfluorescein-diacetate (DCFH-DA) (Sigma) to fluorescent dichlorofluorescein. Cells were treated with DOX (1 μM) in the absence or presence of compounds or NAC as ROS inhibitor (1 mM) (Sigma). Then, cells were incubated with 10 μM DCFH-DA at 37 °C in the dark for 30 min. ROS level was fluorimetrically evaluated at 485/550 nm during 24 h.

H9c2 cardiomyocytes = test: MTT cell viability assay (cytotoxicity) in H9c2 cardiomyocytes; assay type: cell-based, rat
Protocol: (§1) The potential cytotoxicity of embelin (1) together with derivatives (4a–4m, 5a–5d, 6a–6m) was tested in cardiomyocytes and macrophages in order to ensure that compounds lack toxicity also in immune cells. Cell viability was determined by the MTT assay.[58] Four dihydroquinoline derivatives (4b, 4f, 4i, and 4m) and six quinoline compounds (6a, 6d, 6e, 6i, 6k, and 6m) maintained higher viable cell rates in both types of cells. IC50 values of these derivatives were higher than 40 μM and were selected for further analysis.
(§2) J774A.1 murine macrophage cells, H9c2 embryonic rat heart-derived cells, and MCF-7 breast cancer cells were purchased from American Type Cell Culture (ATCC, Manassas, VA, USA). Cells were cultured in Dulbecco’s modified Eagle medium with 10% fetal bovine serum and 1% penicillin/streptomycin (Lonza) and were maintained at 37 °C in a humidified incubator containing 5% CO2.
(§3) Cell viability was assessed by conducting an MTT [3-(4,5-dimethylthiazol-2-yl)-2,5-diphenyltetrazolium bromide dye] assay. Briefly, J 774A.1, H9c2, and MCF7 cells were seeded in 96-well plates for 24 h. Then, cells were treated with DOX in the absence or presence of compounds. MTT (Sigma) reagent was added to the medium for 1 h at 37 °C. Then, the formazan was dissolved in dimethyl sulfoxide (DMSO, 100 μL). Absorbance was measured at 540 nm with a microplate reader (BMG Labtech).

J774 macrophages = test: MTT cell viability assay (cytotoxicity) in J774 macrophages; assay type: cell-based, murine
Protocol: as §1, §2, §3

[1] = tested on: MCF-7 human breast tumor cells; test: Effect on chemotherapeutic activity of DOX, MTT; assay type: cell-based; conditions: MCF-7 cells, compound 20 μM + DOX 1 μM, 24 h
Protocol: Next, cytotoxicity of the selected compounds was also tested in MCF-7 breast cancer cells to disconfirm that protective effects might antagonize the antitumor effects of doxorubicin.
Figure 4 Effects of derivatives 4i, 6a, 6d, 6e, 6k, and 6m on the chemotherapeutic activity of DOX in MCF-7 human breast tumor cells. Cells were co-treated with selected compounds at 20 μM and DOX (1 μM) for 24 h. Cell viability was measured by MTT assay. Results are reported as mean of cell viability ± SD (n = 3). ****p < 0.0001 vs DOX-treated cells.
as §3

[2] = MTT cell viability assay (cytotoxicity) in H9c2 cardiomyocytes; assay type: cell-based, rat; conditions: rat, H9c2 cardiomyocytes, 24 h, MTT
Protocol: as §1, §2, §3

[3] = MTT cell viability assay (cytotoxicity) in J774 macrophages; assay type: cell-based, murine; conditions: mouse
Protocol: as §1, §2, §3

Compound | ROS production on co-treatment with DOX (ROS in H9c2 cells) | Cell viability (%) H9c2 cardiomyocytes 10 μM (H9c2 cardiomyocytes) | Cell viability (%) H9c2 cardiomyocytes 20 μM (H9c2 cardiomyocytes) | IC50 (H9c2 cardiomyocytes) | Cell viability (%) J774 macrophages 10 μM (J774 macrophages) | Cell viability (%) J774 macrophages 20 μM (J774 macrophages) | IC50 (J774 macrophages) | Effect on antitumor (chemotherapeutic) activity of DOX [1] | IC50 at 24 h ([2]; H9c2 cardiomyocytes (embryonic heart-derived cells), stated for both types of cells) | viability at 24 h, 10 µM ([2]; 10 μM, mean ± SD, n = 3) | viability at 24 h, 20 µM ([2]; 20 μM, mean ± SD, n = 3) | IC50 at 24 h [3] | viability at 24 h, 10 µM [3] | viability at 24 h, 20 µM [3] | melting point | Levels of ROS compared to untreated cells (ROS in H9c2 cells; DOX 1 μM alone) | IC50 (H9c2 cardiomyocytes; Rattus norvegicus, H9c2 cardiomyocytes, 24 h, MTT, read-out: IC50 (loss in cell viability, DOX-treated vs untreated cells))
2-Hydroxy-7-methoxy-9-(4-nitrophenyl)-3-undecylacridine-1,4-dione [Compound 6k] | significantly inhibited ROS production | 99.2 ± 0.8% | 94.4 ± 6.3% | > 40 µM | 81.9 ± 4.6 ^e % | 76.3 ± 5.3 ^e % | > 40 µM | without reducing DOX’s chemotherapeutic effect |  |  |  |  |  |  |  |  | 
CCCCCCCCCCCC1=C(O)C(=O)C2=C(Nc3ccccc3C2c2ccc(C)c(C)c2)C1=O (stereo not shown) [Compound 4i, 2-Hydroxy-9-(3,4-dimethylphenyl)-3-undecyl-9,10-dihydroacridine-1,4-dione] | significantly inhibited ROS production |  |  |  |  |  |  | without reducing DOX’s chemotherapeutic effect | > 40 µM | 84.3 ± 6.8% | 82.2 ± 6.2% | > 40 µM | 96.2 ± 6.8% | 72.6 ± 1.7% | 106 to 108 °C |  | 
COc1cccc2c1C(=O)c1c(O)c3c(c(O)c1C2=O)C[C@@](O)(C(=O)CO)C[C@@H]3O[C@H]1C[C@H](N)[C@H](O)[C@H](C)O1 [DOX, Doxorubicin, reference compound] |  |  |  |  |  |  |  |  |  |  |  |  |  |  |  | significantly increased the levels of ROS | 0.83 µM
